From ChEMBL document CHEMBL4402533 (Eur J Med Chem, 2019)

Tests used:
Tyrosinase = molecular target: T1, Tyrosinase (Agaricus bisporus, UniProt O42713); experiment: Inhibition of mushroom tyrosinase preincubated for 10 mins followed by L-DOPA addition and measured for 1 mins by spectrophotometric assay
T1 sequence (O42713 whole entry): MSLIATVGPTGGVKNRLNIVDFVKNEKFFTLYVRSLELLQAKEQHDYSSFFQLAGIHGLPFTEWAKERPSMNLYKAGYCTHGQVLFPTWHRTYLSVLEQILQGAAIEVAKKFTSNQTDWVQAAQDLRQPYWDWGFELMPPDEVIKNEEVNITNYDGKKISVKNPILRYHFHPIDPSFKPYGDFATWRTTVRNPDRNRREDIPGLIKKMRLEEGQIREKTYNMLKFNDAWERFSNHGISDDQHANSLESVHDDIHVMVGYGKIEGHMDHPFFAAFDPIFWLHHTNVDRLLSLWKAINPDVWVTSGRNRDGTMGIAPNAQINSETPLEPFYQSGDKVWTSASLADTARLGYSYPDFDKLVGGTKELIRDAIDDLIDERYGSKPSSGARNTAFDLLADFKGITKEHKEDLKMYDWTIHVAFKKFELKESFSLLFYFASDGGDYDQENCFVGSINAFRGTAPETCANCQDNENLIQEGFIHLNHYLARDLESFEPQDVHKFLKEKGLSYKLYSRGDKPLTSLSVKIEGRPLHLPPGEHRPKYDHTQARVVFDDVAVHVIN

[1] = Chemical stability of the compound in presence of 10% FBS or human blood; format: physicochemical
[2] = Partition coefficient, log P of the compound; format: physicochemical; conditions: octanol/water
[3] = Critical aggregation concentration of compound by dynamic light scattering; format: physicochemical
[4] = Chemical stability of the compound in pH 7.4 phosphate buffer assessed as drug decomposition in serum-free medium measured within 30 mins; format: physicochemical
Mus musculus = experiment: Antiinflammatory activity in C57BL/6 mouse assessed as reduction in LPS-induced inflammatory mortality by measuring mouse survival rate at 10 mg/kg, iv preincubated for 15 mins followed by LPS stimulation and measured at 24 hrs interval for 7 days relative to control; format: functional
HeLa = experiment: Antiproliferative activity against human HeLa cells; format: functional, cell-based
Homo sapiens [5] = species: Homo sapiens; experiment: Selectivity ratio of Ki for human carbonic anhydrase 9 to Ki for human carbonic anhydrase 2
Homo sapiens [6] = species: Homo sapiens; experiment: Selectivity ratio of Ki for human carbonic anhydrase 12 to Ki for human carbonic anhydrase 9

O=C1/C(=C/c2ccc(O)cc2)CC/C1=C\c1ccc(O)cc1O
IC50 (Tyrosinase): 1740 nM

COc1cc(/C=C/C(=O)CC(=O)/C=C/c2ccc(O)c(OC)c2)ccc1O [CURCUMIN]
Stability [1]: < 50% | logP [2]: 2.3 to 2.6 | CAC [3]: 17 µM | Drug degradation [4]: < 90%

O=C(/C=C/c1ccccc1O)/C=C/c1ccccc1Br
Activity (Mus musculus): 60%

COc1ccc(/C=C/C(=O)/C=C/c2ccc(OCCN3CCCCC3)c(OC)c2)cc1OC
IC50 (HeLa): 700 nM

COc1ccc(/C=C/C(=O)/C=C/c2ccc(S(N)(=O)=O)cc2)cc1OC
Ratio Ki (Homo sapiens [5]): 3 | Ratio Ki (Homo sapiens [6]): 70

COc1ccc(OC)c(/C=C/C(=O)/C=C/c2ccc(S(N)(=O)=O)cc2)c1
Ratio Ki (Homo sapiens [5]): 9 | Ratio Ki (Homo sapiens [6]): 9
